Measured values from patent US20260028354A1, “TETRAHYDRONAPHTHALENE DERIVATIVES AS ESTROGEN RECEPTOR DEGRADERS” (REGENT OF THE UNIVERSITY OF MICHIGAN, priority 2022, published 2026).
Like-named read-outs stand apart in the source and are kept apart here.

How the values were obtained:
CRBN/DDB1 = CRBN/DDB1 (Homo sapiens (Human), UniProt Q96SW2); assay type: binding; settings: His tagged CRBN+DDB1, Cy5-labeled Thalidomide probe, one hour; read-out: CRBN HTRF IC50
Description: The binding potency was determined using HTRF assay technology (Perkin Elmer). Compounds were serially diluted in DMSO and […] volume was transferred to white 384-well plate.

ERα_LBD (GST) = ERα_LBD (GST) (Homo sapiens (Human), UniProt P03372); test: IC50 measurements for binding to ERα_LBD (GST), LanthaScreen TR-FRET competitive binding; settings: ERα_LBD (GST) 4 nM, Fluormone ES2 Green tracer, 60 min; read-out: ERα HTRF IC50
ERα_LBD (GST), sequence (P03372 311-547): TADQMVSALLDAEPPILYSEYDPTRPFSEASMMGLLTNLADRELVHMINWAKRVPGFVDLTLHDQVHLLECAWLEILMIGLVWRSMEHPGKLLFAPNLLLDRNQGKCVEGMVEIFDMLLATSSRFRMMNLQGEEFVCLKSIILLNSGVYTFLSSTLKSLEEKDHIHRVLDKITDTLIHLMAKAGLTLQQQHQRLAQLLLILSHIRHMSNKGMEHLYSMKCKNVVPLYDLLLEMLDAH
Description: In vitro Assay: IC50 Measurements for binding to ERα_LBD (GST) • Final assay conditions: • 1. ERα_LBD (GST) protein: 4 nM • 2. Tb Anti-GST: 2 nM • 3. Fluormone ES2 Green tracer: 3 nM • 4. Incubation time: 60 min • 5. DMSO: 1% • 6. Assay buffer: Adding 1M DTT to Nuclear receptor Buffer K for final 5 mM DTT. • 7. ZPE: 1% DMSO • 8. HPE: 1 μM ARV_471 (positive control) • 9. LanthaScreen® TR-FRET ERα Competitive Binding Assay (ThermoFisher, #A^15887) • 100× Compound preparation
1) Cherry pick 2 μL 10 mM compound stock to column 1 of a 384 intermediate plate. • 2) Add 18 μL DMSO to column 1 to dilute compound to 1 mM. • 3) Transfer 10 μL 1 mM compound to column 1 of a LDV plate. • 2) Add 6 μl DMSO to column 2-10 of the LDV plate. • 3) Compounds undergo 3-fold serial dilution (3 μL+6 μL) in DMSO. • 4) Transfer 120 nL compound solution to assay plate. ZPE: 120 nL 100% DMSO • Procedure:
Complete nuclear receptor buffer K was prepared by adding 1 M DTT to nuclear receptor buffer K for a final concentration of 5 mM DTT. Complete nuclear receptor buffer K must be prepared fresh daily, 2X protein solution was prepared using complete nuclear receptor buffer K containing 8 nM ERα_LBD (GST) and 4 nM Tb Anti-GST. Then, 2X Fluormone ES2 Green tracer (6 nM) was prepared using complete nuclear receptor buffer K. Add 6 μL 2X Fluormone ES2 green tracer into a compound plate (PerkinElmer 6008289) by dragonfly with one-tips-addition. Subsequently, 6 μL 2× protein solution was added into the plate. The 384-well plate was mixed on a plate shaker and incubated at room temperature protected from light for 60 min. The plate was scaled with a cover to minimize evaporation. The plate was read at wavelengths of 520 nm and 495 nm. The TR-FRET ratio was calculated by dividing the emission signal at 520 nm by the emission signal at 495 nm. A binding curve was generated by plotting the emission ratio vs, the log [ligand]. To determine the IC50 value, fit the data using XL-fit for a sigmoidal dose-response.

ER in MCF-7 cells = ER in MCF-7 cells (Homo sapiens (Human), UniProt P03372); test: In-cell Western (ICW) ER degradation assay in MCF-7 cells; assay type: cell-based; settings: for DC50: MCF-7, ER degradation, read-out: MCF7 DC50
ER in MCF-7 cells, sequence (P03372 whole entry): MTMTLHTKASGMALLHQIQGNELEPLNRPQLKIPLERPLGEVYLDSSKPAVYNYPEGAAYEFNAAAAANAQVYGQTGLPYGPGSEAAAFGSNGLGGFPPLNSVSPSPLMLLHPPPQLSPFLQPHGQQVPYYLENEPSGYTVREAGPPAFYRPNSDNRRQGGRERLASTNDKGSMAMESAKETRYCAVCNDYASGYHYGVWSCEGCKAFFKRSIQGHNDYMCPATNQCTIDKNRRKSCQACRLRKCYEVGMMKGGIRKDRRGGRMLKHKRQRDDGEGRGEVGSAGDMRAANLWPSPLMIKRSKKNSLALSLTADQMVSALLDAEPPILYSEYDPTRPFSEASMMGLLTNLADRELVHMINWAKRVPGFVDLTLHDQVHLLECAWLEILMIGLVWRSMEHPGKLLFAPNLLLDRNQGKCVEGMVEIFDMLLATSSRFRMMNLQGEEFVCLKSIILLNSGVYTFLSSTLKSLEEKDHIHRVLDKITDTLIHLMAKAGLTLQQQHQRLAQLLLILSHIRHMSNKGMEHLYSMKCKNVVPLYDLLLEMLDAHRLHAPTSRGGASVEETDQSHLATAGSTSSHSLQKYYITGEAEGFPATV

ER in T47D cells = ER in T47D cells (Homo sapiens (Human), UniProt P03372); test: In-cell Western (ICW) ER degradation assay in T47D cells; assay type: cell-based; settings: for DC50: ER degradation
ER in T47D cells, sequence (P03372 whole entry): as above

[1] = MCF7, MCF-7, maximal ER degradation, 16 hrs treatment, read-out: MCF7 Dmax
[2] = maximal ER degradation, 16 hrs treatment, read-out: T47D Dmax
[3] = MCF7, read-out: MCF7 Dmax, MCF-7, maximal ER degradation, 16 hrs treatment
[4] = read-out: T47D Dmax, T47D, maximal ER degradation, 16 hrs treatment

CRBN/DDB1, sequence (Q96SW2 whole entry, species assumed): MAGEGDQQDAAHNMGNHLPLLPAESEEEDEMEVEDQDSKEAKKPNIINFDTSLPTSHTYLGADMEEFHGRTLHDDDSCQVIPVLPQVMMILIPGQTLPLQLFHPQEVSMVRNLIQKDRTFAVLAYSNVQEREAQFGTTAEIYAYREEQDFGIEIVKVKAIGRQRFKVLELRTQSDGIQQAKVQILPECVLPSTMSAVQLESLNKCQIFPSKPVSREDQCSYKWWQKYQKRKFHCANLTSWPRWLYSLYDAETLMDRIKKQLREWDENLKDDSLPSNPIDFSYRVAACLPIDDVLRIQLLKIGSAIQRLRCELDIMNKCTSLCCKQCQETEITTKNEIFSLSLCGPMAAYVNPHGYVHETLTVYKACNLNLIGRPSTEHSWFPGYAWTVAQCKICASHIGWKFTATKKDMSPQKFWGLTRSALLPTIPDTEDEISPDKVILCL
CRBN/DDB1, sequence (Q16531 whole entry partner, species assumed): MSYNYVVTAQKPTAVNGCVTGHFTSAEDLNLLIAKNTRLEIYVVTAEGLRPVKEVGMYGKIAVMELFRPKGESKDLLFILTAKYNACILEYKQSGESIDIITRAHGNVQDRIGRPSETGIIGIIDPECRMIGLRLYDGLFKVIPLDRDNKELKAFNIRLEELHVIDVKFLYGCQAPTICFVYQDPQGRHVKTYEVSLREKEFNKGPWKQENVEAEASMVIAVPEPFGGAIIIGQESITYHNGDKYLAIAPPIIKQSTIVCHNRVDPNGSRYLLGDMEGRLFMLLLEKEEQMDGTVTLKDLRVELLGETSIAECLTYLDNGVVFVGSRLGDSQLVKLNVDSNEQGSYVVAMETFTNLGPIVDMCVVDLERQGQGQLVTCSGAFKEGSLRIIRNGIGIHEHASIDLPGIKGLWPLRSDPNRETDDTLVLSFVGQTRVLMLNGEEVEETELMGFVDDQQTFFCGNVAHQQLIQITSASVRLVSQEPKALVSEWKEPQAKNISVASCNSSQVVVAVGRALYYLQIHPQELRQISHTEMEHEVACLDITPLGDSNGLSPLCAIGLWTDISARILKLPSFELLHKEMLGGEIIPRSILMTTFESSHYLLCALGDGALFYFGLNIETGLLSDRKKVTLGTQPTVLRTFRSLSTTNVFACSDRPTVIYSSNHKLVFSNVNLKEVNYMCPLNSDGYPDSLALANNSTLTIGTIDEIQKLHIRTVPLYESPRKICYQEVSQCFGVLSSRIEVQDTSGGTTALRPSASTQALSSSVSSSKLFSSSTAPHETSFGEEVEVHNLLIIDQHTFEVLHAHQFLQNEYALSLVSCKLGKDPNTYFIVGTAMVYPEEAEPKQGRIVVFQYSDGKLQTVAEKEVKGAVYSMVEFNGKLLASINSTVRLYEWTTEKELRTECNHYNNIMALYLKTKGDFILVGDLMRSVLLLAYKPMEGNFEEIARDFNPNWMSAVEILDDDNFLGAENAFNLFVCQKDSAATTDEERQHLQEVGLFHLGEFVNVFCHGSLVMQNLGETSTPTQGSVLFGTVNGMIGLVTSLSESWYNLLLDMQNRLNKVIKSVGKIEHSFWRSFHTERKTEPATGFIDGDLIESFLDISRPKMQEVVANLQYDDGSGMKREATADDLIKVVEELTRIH

## O=C1CC[C@H](NC(=O)c2ccc3c(n2)OC[C@H]2CN(CC4CCN(c5ccc([C@@H]6c7ccc(O)cc7CC[C@@H]6c6ccccc6)cc5)CC4)CCN32)C(=O)N1 (single isomer, unassigned) [Compound A6]
CRBN/DDB1
  IC50: 500 to 5000 nM
ERα_LBD (GST)
  IC50: < 10 nM
ER in MCF-7 cells; [1]
  Dmax: 50 to 75%
ER in MCF-7 cells; 16 hrs treatment
  DC50: < 1 nM
ER in T47D cells; 16 hrs treatment
  DC50: < 1 nM
ER in T47D cells; [2]
  Dmax: 50 to 75%

## COc1cc(N2CCC3(CC2)CC(CN2CCN4c5ccc6c(c5OC[C@H]4C2)CN([C@H]2CCC(=O)NC2=O)C6=O)C3)ccc1[C@H]1c2ccc(O)cc2CC[C@H]1c1ccccc1 (single isomer, unassigned) [Compound A9]
CRBN/DDB1
  IC50: < 50 nM
ERα_LBD (GST)
  IC50: 10 to 100 nM
ER in MCF-7 cells; [1]
  Dmax: 50 to 75%
ER in MCF-7 cells; 16 hrs treatment
  DC50: 1 to 10 nM
ER in T47D cells; 16 hrs treatment
  DC50: 1 to 10 nM
ER in T47D cells; [2]
  Dmax: 50 to 75%

## COc1cc(N2CCC3(CC2)CC(CN2CCN4c5cc6c(cc5OC[C@@H]4C2)C(=O)N([C@H]2CCC(=O)NC2=O)C6)C3)ccc1[C@H]1c2ccc(O)cc2CC[C@H]1c1ccccc1 (single isomer, unassigned) [Compound A11]
CRBN/DDB1
  IC50: 50 to 500 nM
ERα_LBD (GST)
  IC50: 10 to 100 nM
ER in MCF-7 cells; [1]
  Dmax: 50 to 75%
ER in MCF-7 cells; 16 hrs treatment
  DC50: 10 to 100 nM
ER in T47D cells; 16 hrs treatment
  DC50: 1 to 10 nM
ER in T47D cells; [2]
  Dmax: 50 to 75%

## O=C1CC[C@H](N2Cc3cc4c(cc3C2=O)OC[C@H]2CN(C[C@@H]3COC5(CCN(c6ccc([C@@H]7c8ccc(O)cc8CC[C@@H]7c7ccccc7)cc6)CC5)C3)CCN42)C(=O)N1 (single isomer, unassigned) [Compound A18]
CRBN/DDB1
  IC50: 500 to 5000 nM
ERα_LBD (GST)
  IC50: > 100 nM
ER in MCF-7 cells; [1]
  Dmax: 50 to 75%
ER in MCF-7 cells; 16 hrs treatment
  DC50: < 1 nM
ER in T47D cells; 16 hrs treatment
  DC50: < 1 nM
ER in T47D cells; [2]
  Dmax: 50 to 75%

## O=C1CC[C@H](N2Cc3c(ccc4c3OC[C@H]3CN(C[C@@H]5COC6(C5)CN(c5ccc([C@@H]7c8ccc(O)cc8CC[C@@H]7c7ccccc7)cc5)C6)CCN43)C2=O)C(=O)N1 (single isomer, unassigned) [Compound A69]
CRBN/DDB1
  IC50: 50 to 500 nM
ERα_LBD (GST)
  IC50: < 10 nM
ER in MCF-7 cells; [1]
  Dmax: 50 to 75%
ER in MCF-7 cells; 16 hrs treatment
  DC50: < 1 nM
ER in T47D cells; 16 hrs treatment
  DC50: < 1 nM
ER in T47D cells; [2]
  Dmax: > 75%

## O=C1CC[C@H](N2Cc3c(ccc4c3OC[C@H]3CN(CC5CC6(CCN(c7ccc([C@@H]8c9ccc(O)cc9CC[C@@H]8c8ccccc8)cn7)CC6)C5)CCN43)C2=O)C(=O)N1 (single isomer, unassigned) [Compound A112]
CRBN/DDB1
  IC50: 50 to 500 nM
ERα_LBD (GST)
  IC50: < 10 nM
ER in MCF-7 cells; [1]
  Dmax: > 75%
ER in MCF-7 cells; 16 hrs treatment
  DC50: < 1 nM

## O=C1CCC(NC(=O)c2ccc3c(n2)OC[C@H]2CN(CC4CCN(c5ccc([C@@H]6c7ccc(O)cc7CC[C@@H]6c6ccccc6)cc5)CC4)CCN32)C(=O)N1 (stereo partly drawn) [Compound A2, (4aR)-N-(2,6-dioxopiperidin-3-yl)-3-((1-(4-((1R,2S)-6-hydroxy-2-phenyl-1,2,3,4-tetrahydronaphthalen-1-yl)-phenyl)piperidin-4-yl)meth-yl)-1,2,3,4,4a,5-hexahydro-pyrazino[1,2-d]pyrido[2,3-b] [1,4]oxazine-8-carboxamide]
CRBN/DDB1
  IC50: 500 to 5000 nM
ERα_LBD (GST)
  IC50: < 10 nM
ER in MCF-7 cells; [1]
  Dmax: > 75%
ER in MCF-7 cells; 16 hrs treatment
  DC50: < 1 nM
ER in T47D cells; 16 hrs treatment
  DC50: < 1 nM
ER in T47D cells; [2]
  Dmax: > 75%

## COc1cc(N2CCC3(CC2)CC(CN2CCC4(CC2)COc2c4ccc4c2CN([C@H]2CCC(=O)NC2=O)C4=O)CO3)ccc1[C@H]1c2ccc(O)cc2CC[C@H]1c1ccccc1 (stereo partly drawn) [Compound A54, (3S)-3-(1′-((8-(4-((1R,2R)-6-hydroxy-2-phenyl-1,2,3,4-tetrahydronaphthalen-1-yl)-3-methoxyphenyl)-1-oxa-8-azaspiro[4.5]decan-3-yl)methyl)-6-oxo-6,8-dihydro-2H,7H-spiro[furo[2,3-e]isoindole-3,4′-piperidin]-7-yl)piperidine-2,6-dione]
CRBN/DDB1
  IC50: < 50 nM
ERα_LBD (GST)
  IC50: < 10 nM
ER in MCF-7 cells; [3]
  Dmax: 50 to 75%
ER in MCF-7 cells; 16 hrs treatment
  DC50: < 1 nM
ER in T47D cells; 16 hrs treatment
  DC50: < 1 nM
ER in T47D cells; [4]
  Dmax: > 75%

## COC1(CN2CCN3c4ccc5c(c4OC[C@H]3C2)CN([C@H]2CCC(=O)NC2=O)C5=O)CCN(c2ccc([C@@H]3c4ccc(O)cc4CC[C@@H]3c3ccccc3)cc2)CC1 [Compound A82, (S)-3-((R)-7-((1-(4-((1R,2S)-6-hydroxy-2-phenyl-1,2,3,4-tetrahydronaphthalen-1-yl)-phenyl)-4-methoxypiperidin-4-yl)methyl)-1-oxo-1,3,5,5a,6,7,8,9-octahydro-2H-pyrazino [1′,2′:4,5][1,4]oxazino[2,3-c]isoindol-2-yl)piperidine-2,6-dione]
CRBN/DDB1
  IC50: 50 to 500 nM
ERα_LBD (GST)
  IC50: < 10 nM
ER in MCF-7 cells; [1]
  Dmax: > 75%
ER in MCF-7 cells; 16 hrs treatment
  DC50: < 1 nM

## COc1cc(N2CCC(CN3CCN4c5ccc(C(=O)N[C@H]6CCC(=O)NC6=O)nc5OC[C@H]4C3)CC2)c(F)cc1[C@@H]1c2ccc(O)cc2CC[C@@H]1c1ccccc1 [Compound A94, (R)-N-((S)-2,6-dioxopiperidin-3-yl)-3-((1-(2-fluoro-4-((1S,2S)-6-hydroxy-2-phenyl-1,2,3,4-tetrahydronaphthalen-1-yl)-5-methoxyphenyl)piperidin-4-yl)methyl)-1,2,3,4,4a,5-hexahydropyrazino[1,2-d]pyrido[2,3-b][1,4]oxazine-8-carboxamide]
CRBN/DDB1
  IC50: > 5000 nM
ERα_LBD (GST)
  IC50: < 10 nM
ER in MCF-7 cells; [1]
  Dmax: > 75%
ER in MCF-7 cells; 16 hrs treatment
  DC50: < 1 nM
ER in T47D cells; 16 hrs treatment
  DC50: < 1 nM
ER in T47D cells; [2]
  Dmax: > 75%

## COc1cc(N2CCC3(CC2)CC(CN2CCC4(CC2)COc2c4ccc4c2CN([C@H]2CCC(=O)NC2=O)C4=O)C3)ccc1[C@@H]1c2ccc(O)cc2CC[C@@H]1c1ccccc1 [Compound A95, (S)-3-(1′-((7-(4-((1S,2S)-6-hydroxy-2-phenyl-1,2,3,4-tetra-hydronaphthalen-1-yl)-3-meth-oxyphenyl)-7-azaspiro[3.5]nonan-2-yl)methyl)-6-oxo-6,8-dihydro-2H,7H-spiro[furo[2,3-e]isoindole-3,4′-piperidin]-7-yl)piperidine-2,6-dione]
CRBN/DDB1
  IC50: < 50 nM
ERα_LBD (GST)
  IC50: < 10 nM
ER in MCF-7 cells; [3]
  Dmax: > 75%
ER in MCF-7 cells; 16 hrs treatment
  DC50: < 1 nM
ER in T47D cells; 16 hrs treatment
  DC50: < 1 nM
ER in T47D cells; [4]
  Dmax: > 75%

## O=C1CC[C@H](N2Cc3c(ccc4c3OCC43CCN(CC4CC5(CCN(c6ccc([C@@H]7c8ccc(O)cc8CC[C@@H]7c7ccccc7)cn6)CC5)C4)CC3)C2=O)C(=O)N1 [Compound A116, (S)-3-(1′-((7-(5-((1S,2S)-6-hydroxy-2-phenyl-1,2,3,4-tetra-hydronaphthalen-1-yl)pyridin-2-yl)-7-azaspiro[3.5]nonan-2-yl)methyl)-6-oxo-6,8-dihydro-2H,7H-spiro[furo[2,3-e]iso-indole-3,4′-piperidin]-7-yl)-piperidine-2,6-dione]
CRBN/DDB1
  IC50: < 50 nM
ERα_LBD (GST)
  IC50: < 10 nM
ER in MCF-7 cells; [3]
  Dmax: 50 to 75%
ER in MCF-7 cells; 16 hrs treatment
  DC50: < 1 nM
ER in T47D cells; 16 hrs treatment
  DC50: < 1 nM
ER in T47D cells; [4]
  Dmax: > 75%

## O=C1CC[C@H](N2Cc3c(ccc4c3OCC43CCN(CC4CCC5(CC4)CN(c4ccc([C@@H]6c7ccc(O)cc7CC[C@@H]6c6ccccc6)cn4)C5)CC3)C2=O)C(=O)N1 [Compound A131, (S)-3-(1′-((2-(5-((1S,2S)-6-hydroxy-2-phenyl-1,2,3,4-tetrahydronaphthalen-1-yl)pyridin-2-yl)-2-azaspiro[3.5]nonan-7-yl)methyl)-6-oxo-6,8-dihydro-2H,7H-spiro[furo[2,3-e]isoindole-3,4′-piperidin]-7-yl)piperidine-2,6-dione]
CRBN/DDB1
  IC50: < 50 nM
ERα_LBD (GST)
  IC50: < 10 nM
ER in MCF-7 cells; [3]
  Dmax: > 75%
ER in MCF-7 cells; 16 hrs treatment
  DC50: < 1 nM

## O=C1CC[C@H](N2Cc3c(ccc4c3OCC43CCN(CC4CCC5(CC4)CN(c4ccc([C@@H]6c7ccc(O)cc7CC[C@@H]6c6ccccc6)cc4F)C5)CC3)C2=O)C(=O)N1 [Compound A161, (S)-3-(1′-((2-(2-fluoro-4-((1R, 2S)-6-hydroxy-2-phenyl-1,2,3,4-tetrahydronaphthalen-1-yl)phenyl)-2-azaspiro[3.5]nonan-7-yl)methyl)-6-oxo-6,8-dihydro-2H,7H-spiro[furo[2,3-e]isoindole-3,4′-piperidin]-7-yl)piperidine-2,6-dione]
CRBN/DDB1
  IC50: < 50 nM
ERα_LBD (GST)
  IC50: < 10 nM
ER in MCF-7 cells; [3]
  Dmax: 50 to 75%
ER in MCF-7 cells; 16 hrs treatment
  DC50: < 1 nM
